Results as given in patent US7414041B2 (Trustees Of Tufts College, priority 1991, dated 2008).
pIC50: −log10 of the molar value. Read-outs that look alike come from different tables or passages of the source.

Experiments:
[1] = molecular target: T1, TET proteins responsible for tetracycline efflux (Class B tetracycline resistance determinant, strain D1-209) (Escherichia coli, UniProt P02980); assay: biochemical; parameters: species or system E. coli
T1 construct: Everted vesicles, to which the TET proteins responsible for tetracycline efflux are attached; endogenous in cells; host or cells: E. coli strain D1-209 (everted membrane vesicles)
T1 sequence (P02980 whole entry): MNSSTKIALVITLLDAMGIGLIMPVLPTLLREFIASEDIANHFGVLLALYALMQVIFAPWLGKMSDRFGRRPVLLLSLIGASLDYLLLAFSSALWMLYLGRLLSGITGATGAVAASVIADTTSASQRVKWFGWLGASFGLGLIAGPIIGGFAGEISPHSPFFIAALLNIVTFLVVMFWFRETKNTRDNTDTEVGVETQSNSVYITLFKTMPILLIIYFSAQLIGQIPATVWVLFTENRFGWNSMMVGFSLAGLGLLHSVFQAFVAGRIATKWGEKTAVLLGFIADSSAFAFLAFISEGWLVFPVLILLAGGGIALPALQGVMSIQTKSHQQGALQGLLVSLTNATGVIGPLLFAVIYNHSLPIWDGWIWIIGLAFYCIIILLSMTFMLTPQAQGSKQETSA

S. aureus 4250 (Tet K) = assay: MIC/MLC chart, analog with and without doxycycline; format: cell-based
E. coli D1-299 (Tet A) = format: cell-based;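 note: E. coli at roughly 5×10^5 cells/ml in L broth, analog and doxycycline alone or mixed in two-fold dilutions from 50 to under 1 µg/ml, 18 h at 37 °C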
E. faecalis 211 (Tet M) = assay: MIC/MLC chart, analog with and without doxycycline; format: cell-based;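 note: broth checkerboard of two-fold drug dilutions, alone and mixed with doxycycline, bacteria near 5×10^5 cells/ml, 18 h incubation at 37 °C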
E. faecalis 158 (Tet L) = assay: MIC/MLC chart, analog with and without doxycycline; format: cell-based
[2] = system: E. coli Class A Tc^r (DI-299); format: cell-based
[3] = system: E. coli Tc^s (MI 300-225); assay: susceptibility testing MIC/MLC, drug alone; format: cell-based; conditions: Tc^s
[4] = system: E. faecalis Tc^r (L) (ATCC9790r/Tet L); format: cell-based; conditions: Tc^r (L)
[5] = system: E. coli Class β Tc^r (DI-209); format: cell-based
S. aureus Tc^s (RN450) = assay: susceptibility testing MIC/MLC, drug alone; format: cell-based; conditions: for MLC: kills 99.9%
[6] = system: E. faecalis Tc^r (M) (ATCC9790r/Tet M); format: cell-based
[7] = system: E. faecalis Tc^s (ATCC9790r); assay: susceptibility testing MIC/MLC, drug alone; format: cell-based
S. aureus Tc^r (RN4250) = format: cell-based; conditions: Tc^r RN4250; for MLC: kills 99.9%
[8] = doxycycline alone 1.56 μg/ml (Doxy Control)
[9] = doxycycline alone 3.12 μg/ml (Doxy Control)
[10] = doxycycline alone 6.25 μg/ml (Doxy Control)
[11] = doxycycline alone 12.5 μg/ml (Doxy Control)

Q: How did the pIC50 [1] turn out when `CN(C)[C@@H]1C(O)=C(C(N)=O)C(=O)C2(O)C(O)=C3C(=O)c4c(O)cccc4C(CSC4CCCC4)C3[C@H](OC(=O)C3CCCCC3)C12` (stereo partly shown) [Cmpd 9] was run?
A: Its pIC50 is under 4.52.

Q: How did the pIC50 ([1]; uptake at 2.5 minutes, about 4 μM 3H-tetracycline, read-out: IC50) turn out when `CN(C)[C@@H]1C(O)=C(C(N)=O)C(=O)C2(O)C(O)=C3C(=O)c4c(O)cccc4C(CSC4CCCC4)C3[C@H](OC(=O)C3CCCC3)C12` (stereo partly shown) [Cmpd 10] was run?
A: Its pIC50 is under 4.52.

Q: How did the pIC50 [1] turn out when `C=C1c2cccc(O)c2C(=O)C2=C(O)C3(O)C(=O)C(C(N)=O)=C(O)C(N(C)C)C3C(OC(=O)C3CC3)C12` (stereo not shown) [Cmpd 11, 5 cyclopropanoate methacycline] was run?
A: The pIC50 was 5.03.

Q: How did the MIC/MLC chart symbol (S. aureus 4250 (Tet K); Chart 6B, Doxy Control (doxycycline alone), μg/ml = number in line above) turn out when `C[C@H]1c2cccc(O)c2C(O)=C2C(=O)[C@]3(O)C(O)=C(C(N)=O)C(=O)[C@@H](N(C)C)[C@@H]3[C@@H](O)[C@@H]21` [Doxy, Doxycycline, reference compound] was run?
A: The MIC/MLC chart symbol was “+”.

Q: What about the “growth / no growth (MIC) / killing (MLC) symbol” value (“growth / no growth” for short) (S. aureus 4250 (Tet K); doxy alone 1.56 μg/ml) of the same compound?
A: Its value is “+”.

Q: And the “growth / no growth” value (S. aureus 4250 (Tet K); doxy alone 3.12 μg/ml)?
A: The value was “+”.

Q: What about the “growth / no growth” value (S. aureus 4250 (Tet K); doxy alone 6.25 μg/ml) of the same compound?
A: Its value is “+”.

Q: And the “growth / no growth” value (S. aureus 4250 (Tet K); doxy alone 12.5 μg/ml)?
A: The value was “+”.

Q: What about the “MIC/MLC chart: growth or killing” value (S. aureus 4250 (Tet K); [8]) of the same compound?
A: The value was “+”.

Q: And the “MIC/MLC chart: growth or killing” value (S. aureus 4250 (Tet K); [9])?
A: The value was “+”.

Q: What about the “MIC/MLC chart: growth or killing” value (S. aureus 4250 (Tet K); [10]) of the same compound?
A: The value was “+”.

Q: And the “MIC/MLC chart: growth or killing” value (S. aureus 4250 (Tet K); [11])?
A: Its value is “◯”.

Q: And the MIC/MLC chart symbol (E. coli D1-299 (Tet A); Chart 6A, Doxy Control (doxycycline alone), μg/ml = number in line above)?
A: The MIC/MLC chart symbol was “◯ and +”.

Q: What about the “growth / no growth” value (E. coli D1-299 (Tet A); doxy alone 1.56 μg/ml) of the same compound?
A: Its value is “+”.

Q: And the “growth / no growth” value (E. coli D1-299 (Tet A); doxy alone 3.12 μg/ml)?
A: The value was “+”.

Q: What about the “growth / no growth” value (E. coli D1-299 (Tet A); doxy alone 6.25 μg/ml) of the same compound?
A: The value was “+”.

Q: What about the “growth / no growth” value (E. coli D1-299 (Tet A); doxy alone 12.5 μg/ml) of the same compound?
A: The value was “+”.

Q: And the “growth / no growth” value (E. coli D1-299 (Tet A); doxy alone 25 μg/ml)?
A: The value was “◯”.

Q: And the “MIC/MLC chart: growth or killing” value (E. coli D1-299 (Tet A); [8])?
A: The value was “+”.

Q: What about the “MIC/MLC chart: growth or killing” value (E. coli D1-299 (Tet A); [9]) of the same compound?
A: Its value is “+”.

Q: What about the “MIC/MLC chart: growth or killing” value (E. coli D1-299 (Tet A); [10]) of the same compound?
A: Its value is “+”.

Q: And the “MIC/MLC chart: growth or killing” value (E. coli D1-299 (Tet A); [11])?
A: Its value is “+”.

Q: What about the “MIC/MLC chart: growth or killing” value (E. coli D1-299 (Tet A); doxycycline alone 25.0 μg/ml (Doxy Control)) of the same compound?
A: Its value is “+”.

Q: And the MIC/MLC chart symbol (E. faecalis 211 (Tet M); Chart 6D, Doxy Control (doxycycline alone), μg/ml = number in line above)?
A: Its MIC/MLC chart symbol is “↓ and +”.

Q: What about the “growth / no growth” value (E. faecalis 211 (Tet M); doxy alone 1.56 μg/ml) of the same compound?
A: The value was “+”.

Q: And the “growth / no growth” value (E. faecalis 211 (Tet M); doxy alone 3.12 μg/ml)?
A: Its value is “+”.

Q: And the “growth / no growth” value (E. faecalis 211 (Tet M); doxy alone 6.25 μg/ml)?
A: Its value is “+”.

Q: What about the “growth / no growth” value (E. faecalis 211 (Tet M); doxy alone 12.5 μg/ml) of the same compound?
A: Its value is “+”.

Q: What about the “growth / no growth” value (E. faecalis 211 (Tet M); doxy alone 25 μg/ml) of the same compound?
A: Its value is “↓”.

Q: What about the “MIC/MLC chart: growth or killing” value (E. faecalis 211 (Tet M); [8]) of the same compound?
A: The value was “+”.

Q: What about the “MIC/MLC chart: growth or killing” value (E. faecalis 211 (Tet M); [9]) of the same compound?
A: The value was “+”.

Q: And the “MIC/MLC chart: growth or killing” value (E. faecalis 211 (Tet M); [10])?
A: The value was “+”.

Q: And the “MIC/MLC chart: growth or killing” value (E. faecalis 211 (Tet M); [11])?
A: The value was “+”.

Q: What about the MIC/MLC chart symbol (E. faecalis 158 (Tet L); Chart 6C, Doxy Control (doxycycline alone), μg/ml = number in line above) of the same compound?
A: The MIC/MLC chart symbol was “+”.

Q: What about the “growth / no growth” value (E. faecalis 158 (Tet L); doxy alone 1.56 μg/ml) of the same compound?
A: The value was “+”.

Q: And the “growth / no growth” value (E. faecalis 158 (Tet L); doxy alone 3.12 μg/ml)?
A: The value was “+”.

Q: What about the “growth / no growth” value (E. faecalis 158 (Tet L); doxy alone 6.25 μg/ml) of the same compound?
A: Its value is “+”.

Q: And the “growth / no growth” value (E. faecalis 158 (Tet L); doxy alone 12.5 μg/ml)?
A: Its value is “↓”.

Q: And the “MIC/MLC chart: growth or killing” value (E. faecalis 158 (Tet L); [8])?
A: The value was “+”.

Q: And the “MIC/MLC chart: growth or killing” value (E. faecalis 158 (Tet L); [9])?
A: The value was “+”.

Q: What about the “MIC/MLC chart: growth or killing” value (E. faecalis 158 (Tet L); [10]) of the same compound?
A: The value was “+”.

Q: How did the “MIC” value ([2]; 1st column) turn out when `CC(C)SCC1c2cccc(O)c2C(=O)C2=C(O)C3(O)C(=O)C(C(N)=O)=C(O)C(N(C)C)C3C(O)C21` (stereo not shown) [Isopropyl] was run?
A: Its value is 46 ± 6 µg.

Q: And the “MIC” value ([2]; 2nd column)?
A: Its value is 60 µg.

Q: And the “MIC” value ([3]; 1st column)?
A: Its value is 22 ± 2 µg.

Q: What about the “MIC” value ([3]; 2nd column) of the same compound?
A: Its value is 60 µg.

Q: What about the “MIC” value ([4]; 1st column) of the same compound?
A: Its value is 3 ± 1 µg.

Q: What about the “MIC” value ([4]; 2nd column) of the same compound?
A: Its value is 100 ± 0.25 µg.

Q: What about the “MIC” value ([5]; 1st column) of the same compound?
A: The value was 35 ± 6 µg.

Q: And the “MIC” value ([5]; 2nd column)?
A: The value was 46 ± 16 µg.

Q: And the “MIC” value (S. aureus Tc^s (RN450))?
A: The value was 0.5 ± 0.25 µg.

Q: And the “MLC” value (S. aureus Tc^s (RN450))?
A: Its value is 6 ± 2 µg.

Q: And the “MIC” value ([6]; 2nd column)?
A: The value was over 200 µg.

Q: What about the “MIC” value ([7]; 1st column) of the same compound?
A: The value was 3 ± 1 µg.

Q: What about the “MIC” value ([7]; 2nd column) of the same compound?
A: Its value is 20 ± 0.26 µg.

Q: What about the “MIC” value (S. aureus Tc^r (RN4250)) of the same compound?
A: The value was 4.5 ± 0.5 µg.

Q: And the “MLC” value (S. aureus Tc^r (RN4250))?
A: The value was 8 µg.

Q: Which results are given for `CN(C)c1ccc(O)c2c1C[C@H]1C[C@H]3[C@H](N(C)C)C(=O)C(C(N)=O)=C(O)[C@@]3(O)C(=O)C1=C2O` [Minocycline, reference compound]?
A: MIC ([2]; 1st column): <4 µg; MIC ([2]; 2nd column): 20 µg; MIC ([3]; 1st column): <4 µg; MIC ([3]; 2nd column): <4 µg; MIC ([4]; 1st column): <0.26 µg; MIC ([4]; 2nd column): >80 µg; MIC ([5]; 1st column): 6 ± 2 µg; MIC ([5]; 2nd column): 30 ± 10 µg; MIC (S. aureus Tc^s (RN450)): <0.25 µg; MLC (S. aureus Tc^s (RN450)): 8 µg; MIC ([6]; 1st column): 10 µg; MIC ([6]; 2nd column): >80 µg; MIC ([7]; 1st column): <0.26 µg; MIC ([7]; 2nd column): >40 µg; MIC (S. aureus Tc^r (RN4250)): <0.25 µg; MLC (S. aureus Tc^r (RN4250)): >80 µg

Q: Which “MIC” value ([2]; 1st column) does the source give for `CN(C)C1C(O)=C(C(N)=O)C(=O)C2(O)C(O)=C3C(=O)c4c(O)cccc4C(C)(O)C3CC12` (stereo not shown) [Tetracycline, 4-(Dimethylamino)-1,4,4a,5,5a,6-11,12a-octahydro-3,6,10,12,12a-pentahydroxy-6-methyl-1-11-dioxo-2-naphth acenecarboxamide, reference compound] here?
A: Its value is 160 ± 0.26 µg.

Q: And the “MIC” value ([2]; 2nd column)?
A: Its value is 200 µg.

Q: And the “MIC” value ([3]; 1st column)?
A: Its value is 0.6 ± 0.26 µg.

Q: And the “MIC” value ([3]; 2nd column)?
A: The value was 40 ± 0.26 µg.

Q: And the “MIC” value ([4]; 1st column)?
A: The value was 90 ± 10 µg.

Q: What about the “MIC” value ([4]; 2nd column) of the same compound?
A: The value was over 300 µg.

Q: And the “MIC” value ([5]; 1st column)?
A: The value was over 200 µg.

Q: And the “MIC” value ([5]; 2nd column)?
A: The value was over 200 µg.

Q: What about the “MIC” value (S. aureus Tc^s (RN450)) of the same compound?
A: Its value is 0.75 ± 0.25 µg.

Q: And the “MLC” value (S. aureus Tc^s (RN450))?
A: The value was over 6 µg.

Q: And the “MIC” value ([6]; 1st column)?
A: Its value is 100 µg.

Q: What about the “MIC” value ([6]; 2nd column) of the same compound?
A: The value was 300 µg.

Q: And the “MIC” value ([7]; 1st column)?
A: The value was 0.26 µg.

Q: And the “MIC” value ([7]; 2nd column)?
A: Its value is over 200 µg.

Q: And the “MIC” value (S. aureus Tc^r (RN4250))?
A: Its value is 90 ± 10 µg.

Q: And the “MLC” value (S. aureus Tc^r (RN4250))?
A: The value was 100 µg.
